{
  "source": "paper PMC6278295",
  "about": "“Shape Effects of Peptide Amphiphile Micelles for Targeting Monocytes” (Molecules, 2018)",
  "key": {"[1]": {"experiment": "Circular dichroism secondary structure", "format": "physicochemical", "settings": "CD, 100 µM, 190-240 nm, five scans averaged, Provencher & Glockner Method", "experimental": "Circular dichroism (CD) spectroscopy was carried out using a Jasco J-815 spectropolarimeter (Easton, MD, USA). PAM solutions (100 µM) were analyzed in 0.2 mm path-length cuvettes. Measurements were made at 0.5 nm intervals from 190 nm to 240 nm with 1 s intervals and 1 nm bandwidth. Data from five scans were averaged to create the CD spectra, and the secondary structures were quantified using the Provencher & Glockner Method."}, "murine monocytes": {"test_system": "murine monocytes", "experiment": "Chemotaxis assay (transwell, migrated monocyte DNA)", "format": "cell-based", "settings": "4 h, 8 µm pore transwell, Pico Green, n = 4", "experimental": "To determine the chemoattractant properties of PAMs, 50,000 monocytes in 20 µL were suspended on a 24-well transwell plate with 8 µm pores. After 4 h, the number of cells that migrated to the bottom well containing 1 µM, 10 µM, 100 µM, 1000 µM PAMs, peptides, or PBS was quantified by lysing the cells via sonication, and measuring DNA using Quant-it Pico Green (Invitrogen, Carlsbad, CA, USA)."}},
  "data": [
    {"sequence": "YNFTNRKISVQRLASYRRITSSK [MCP-1 Peptide, MCP-1 peptide (residues 13–35) modified with a cysteine at the N-terminus]", "values": [
      {"measurement": "Secondary Structure, Alpha Helix", "setting": "[1]", "result": 9.2, "unit": "%"},
      {"measurement": "Secondary Structure, Beta Sheet", "setting": "[1]", "result": 36.2, "unit": "%"},
      {"measurement": "Secondary Structure, Random Coil", "setting": "[1]", "result": 54.5, "unit": "%"},
      {"measurement": "Amount of migrated monocyte DNA at 1000 µM", "setting": "murine monocytes", "result": "78.98 ± 0.8", "unit": "ng/mL"}
    ]},
    {"sequence": "YNSLVFRIRNSTQRKYRASIST [Scrambled MCP-1 Peptide, scrambled version of the MCP-1 peptide designed to mimic its secondary structure]", "values": [
      {"measurement": "Secondary Structure, Alpha Helix", "setting": "[1]", "result": 8.6, "unit": "%"},
      {"measurement": "Secondary Structure, Beta Sheet", "setting": "[1]", "result": 43.9, "unit": "%"},
      {"measurement": "Secondary Structure, Random Coil", "setting": "[1]", "result": 47.5, "unit": "%"}
    ]}
  ]
}
